What was measured:
[1] = biological target: T1, RORγ ligand binding domain (RORγ-LBD) (Homo sapiens, UniProt P51449); experiment: Dual Fluorescence Energy Transfer (FRET) Assay; assay type: biochemical; details: RORγ-LBD / SRC1(2) co-activator peptide interaction, read-out: mean pIC50 (converted)
T1 construct: His6 with thrombin site) (N); made in house; host or cells: E. coli BL21(DE3), modified pET21a vector
T1 sequence (P51449 263-518): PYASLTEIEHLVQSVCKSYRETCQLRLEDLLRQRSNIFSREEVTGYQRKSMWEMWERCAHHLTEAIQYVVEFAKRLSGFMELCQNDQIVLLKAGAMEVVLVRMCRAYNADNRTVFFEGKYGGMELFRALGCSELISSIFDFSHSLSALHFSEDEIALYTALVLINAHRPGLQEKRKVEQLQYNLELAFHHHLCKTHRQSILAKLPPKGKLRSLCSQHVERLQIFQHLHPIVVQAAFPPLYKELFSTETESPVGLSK
Source text: Dual Fluorescence Energy Transfer (FRET) Assay
This assay is based on the knowledge that nuclear receptors interact with cofactors (transcription factors) in a ligand dependent manner. RORγ is a typical nuclear receptor in that it has an AF2 domain in the ligand binding domain (LBD) which interacts with co-activators. The sites of interaction have been mapped to the LXXLL (SEQ ID NO:1) motifs in the co-activator SRC 1(2) sequences. Short peptide sequences containing the LXXLL (SEQ ID NO:1) motif mimic the behavior of full-length co-activator.
This assay measures ligand-mediated interaction of the co-activator peptide with the purified bacterial-expressed RORγ ligand binding domain (RORγ-LBD) to indirectly assess ligand binding. RORγ has a basal level of interaction with the co-activator SRC1(2) in the absence of ligand, Thus, it is possible to find ligands that inhibit or enhance the RORγ/SRC1(2) interaction.
Human RORγ Ligand Binding Domain (RORγ-LBD) was expressed in E. coli strain BL21(DE3) as an amino-terminal polyhistidine tagged fusion protein. DNA encoding this recombinant protein was sub-cloned into a modified pET21a expression vector (Novagen). A modified polyhistidine tag ([…]) (SEQ ID NO:2) was fused in frame to residues 263-518 of the human RORγ sequence.
Approximately 50 g E. coli cell pellet was resuspended in 300 mL of lysis buffer (30 mM imidazole pH 7.0 and 150 mM NaCl). Cells were lysed by sonication and cell debris was removed by centrifugation for 30 minutes at 20,000 g at 4° C. The cleared supernatant was filtered through a 0.45 uM cellulose acetate membrane filter. The clarified lysate was loaded onto a column (XK-26) packed with ProBond Nickel Chelating resin (InVitrogen), pre-equilibrated with 30 mM imidazole pH 7.0 and 150 mM NaCl. After washing to baseline absorbance with the equilibration buffer, the column was developed with a gradient from 30 to 500 mM imidazole pH 7.0. Column fractions containing the RORγ-LBD protein were pooled and concentrated to a volume of 5 mLs. The concentrated protein was loaded onto a Superdex 200 column pre-equilibrated with 20 mM Tris-Cl pH 7.2 and 200 mM NaCl. The fractions containing the desired RORγ-LBD protein were pooled together.
Purified RORγ-LBD was buffer exchanged by exhaustive dialysis [3 changes of at least 20 volumes (8000×)] against PBS [100 mM NaPhosphate, pH 8 and 150 mM NaCl]. The concentration of RORγ-LBD was approximately 30 uM in PBS. Five-fold molar excess of NHS-LC-Biotin (Pierce) was added in a minimal volume of PBS. This solution was incubated with occasional gentle mixing for 60 minutes at ambient room temperature. The modified RORγ-LBD was dialyzed against 2 buffer changes—TBS pH 8.0 containing 5 mM DTT, 2 mM EDTA and 2% sucrose—each at least 20 times of the volume. The modified protein was distributed into aliquots, frozen on dry ice and stored at −80° C. The biotinylated RORγ-LBD was subjected to mass spectrometric analysis to reveal the extent of modification by the biotinylation reagent. In general, approximately 95% of the protein had at least a single site of biotinylation and the overall extent of biotinylation followed a normal distribution of multiple sites ranged from one to five.
A biotinylated peptide corresponding to amino acid 676 to 700 ([…]) (SEQ ID NO:3) of the co-activator steroid receptor coactivator SRC1(2) was generated using similar method.
Biotinylated SRC1(2) solution was prepared by adding an appropriate amount of biotinylated SRC1(2) from the 100 uM stock solution to a buffer containing 10 mM of freshly added DTT from solid to give a final concentration of 40 nM. An appropriate amount of Europium labeled Streptavidin was then added to the biotinylated SRC1(2) solution in a tube to give a final concentration of 10 nM. The tube was inverted gently and incubated for 15 minutes at room temperature. […]

[2] = test system: IL-17A secreted from antiCD3/CD28 stimulated Peripheral Blood Mononuclear cells (PBMC); experiment: Peripheral Blood Mononucleocyte Cell Assay (PBMC Assay - IL-17); assay type: cell-based; details: inhibition of IL-17A release, human PBMC stimulated with CD3/CD28 beads, 48 hours; read-out: mean pIC50 (converted)
Method: Peripheral Blood Mononucleocyte Cell Assay (PBMC Assay—IL-17)
This assay is designed to measure levels of IL-17A secreted from antiCD3/CD28 stimulated frozen Peripheral Blood Mononuclear cells (PBMC) isolated from human blood with the aim of identifying inhibitors of IL-17A release.
2. The compounds for screening are dispensed into a master plate at 10 mM top concentration which are serially diluted 1:3 across 11 points in DMSO, then 500 nl is transferred into a 384-well flat-bottomed Greiner plate to which 50 ul of cell suspension is added: for the single shot screening the highest concentration of compound is 10^−5 M; for 11 point full curve dose response studies the highest concentration is 10^−4 M.
As a low control, DMSO (as supplied, for example, by VWR) (final concentration 1%) in column 6 (16 points).
As a high control, 5-(4-fluorophenyl)-2-ureidothiophene-3-carboxamide (obtainable from, for example, Sigma) at a final concentration of 10^−4 M in DMSO should be used in column 18 (16 points).
9. Make the cell suspension at the concentration 8×10^5 cells/mL. to give a final number of 40,000 cells/well.
1. Add well mixed CD3/CD28 Dynabeads (as supplied, for example, by Dynal) to achieve ratio bead:cell=2:1 (i.e a dilution of 1 in 20). Mix thoroughly.
2. Dispense the suspension into the 384 Assay Plates using Multidrop (50 ul per well). If the volume of cell suspension is large, mix the suspension after dispensing into every other plate.
3. Cover the plates with the lids and place them to the humidified incubator (37° C., 5% CO2) for 48 hours.
1. Block cytokine capture Mesoscale Discovery MSD plates with 0.1% Block buffer B (provided by Mesoscale Discovery) in D-PBS solution using 40 ul per well.
1. Transfer 10 ul of supernatants from assay plates to the MSD plates using Cybiwell. Ensure that all wells are covered with the solution. Tap the plate gently, if some of the wells are not covered with the supernatant.
3. Add 10 ul of MSD IL-17 detecting antibody using multidrop (1 ug/mL in D-PBS without Ca^2+ and Mg^2+ (supplied, for example, by Gibco)).
4. Cover the plates with adhesive foil and incubated with shaking for 3 hours at room temperature
7. Add 35 ul of MSD Read Buffer T×2 using multidrop.
8. Read plates on MSD MA6000 reader using the 384 well plate protocol as per manufacturer's instructions.

| Compound | IC50 [1] [nM] | IC50 [2] [nM] |
| --- | --- | --- |
| CCC(C)CN(c1ccc(C(C)C)cn1)S(=O)(=O)c1ccc(OCc2c(C)noc2C)cc1 (stereo not drawn) [Example 49, 4-((3,5-dimethylisoxazol-4-yl)methoxy)-N-(5-isopropylpyridin-2-yl)-N-(2-methylbutyl)benzenesulfonamide] | ≤ 31.6 | – |
| Cc1cc(C(C)C)cnc1N(CC(C)C)S(=O)(=O)c1ccc(OC[C@H]2CCNC[C@H]2F)cc1 (relative stereo) [Example 35, 4-((cis-3-fluoropiperidin-4-yl)methoxy)-N-isobutyl-N-(5-isopropyl-3-methylpyridin-2-yl)benzenesulfonamide] | – | 1000 |
| CCc1ccc(C)nc1N(CC(C)C)S(=O)(=O)c1ccc(OCc2c(C)noc2C)cc1 [Example 24, 4-((3,5-dimethylisoxazol-4-yl)methoxy)-N-(3-ethyl-6-methylpyridin-2-yl)-N-isobutylbenzenesulfonamide] | ≤ 31.6 | 1000 |
| Cc1noc(C)c1COc1ccc(S(=O)(=O)N(CC(C)C)c2nccc(C(F)(F)F)n2)cc1 [Example 14, 4-{[(3,5-dimethyl-4-isoxazolyl)methyl]oxy}-N-(2-methylpropyl)-N-[4-(trifluoromethyl)-2-pyrimidinyl]benzenesulfonamide] | > 10000 | – |
| Cc1noc(C)c1COc1ccc(S(=O)(=O)N(CC2CCC2)c2ccc(C(C)C)cn2)cc1 [Example 47, N-(cyclobutylmethyl)-4-((3,5-dimethylisoxazol-4-yl)methoxy)-N-(5-isopropylpyridin-2-yl)benzenesulfonamide] | ≤ 31.6 | – |
| Cc1noc(C)c1COc1ccc(S(=O)(=O)N(CC(C)C)c2ccc(C(C)C)cn2)cc1 [Example 2, 4-((3,5-dimethylisoxazol-4-yl)-methoxy)-N-isobutyl-N-(5-isopropylpyridin-2-yl)benzenesulfonamide] | ≤ 31.6 | 1000 |

More lines, main results first:

| IC50 [1] [nM] | Compound | IC50 [2] [nM] |
| --- | --- | --- |
| ≤ 31.6 | Cc1cc(C(C)C)cnc1N(CC(C)C)S(=O)(=O)c1ccc(OCC2CCOCC2)cc1 [Example 31, N-isobutyl-N-(5-isopropyl-3-methylpyridin-2-yl)-4-((tetrahydro-2H-pyran-4-yl)methoxy)benzenesulfonamide] | – |
| ≤ 31.6 | Cc1cc(Cl)cnc1N(CC(C)C)S(=O)(=O)c1ccc(OCC2CCOCC2)cc1 [Example 34, N-(5-chloro-3-methylpyridin-2-yl)-N-isobutyl-4-((tetrahydro-2H-pyran-4-yl)methoxy)benzenesulfonamide] | – |
| ≤ 31.6 | C=C(C)c1cnc(N(CC(C)C)S(=O)(=O)c2ccc(OCC3CCOCC3)cc2)c(C)c1 [Example 32, N-isobutyl-N-(3-methyl-5-(prop-1-en-2-yl)pyridin-2-yl)-4-((tetrahydro-2H-pyranyl)methoxy)benzenesulfonamide] | – |
| ≤ 31.6 | CC(C)CN(c1ccc(C(C)C)cn1)S(=O)(=O)c1ccc(OCC2CCOCC2)cc1 [Example 33, N-isobutyl-N-(5-isopropylpyridin-2-yl)-4-((tetrahydro-2H-pyran-4-yl)methoxy)benzenesulfonamide] | – |
| ≤ 31.6 | Cc1cnc(N(CC(C)C)S(=O)(=O)c2ccc(OCc3c(C)noc3C)cc2)c(C)c1 [Example 15, 4-{[(3,5-dimethyl-4-isoxazolyl)methyl]oxy}-N-(3,5-dimethyl-2-pyridinyl)-N-(2-methylpropyl)benzenesulfonamide] | – |
| ≤ 31.6 | CC(C)c1ccc(N(C(C)C(C)C)S(=O)(=O)c2ccc(OCC3CCOCC3)cc2)nc1 (stereo not drawn) [Example 38, N-(5-isopropylpyridin-2-yl)-N-(3-methylbutan-2-yl)-4-((tetrahydro-2H-pyran-4-yl)methoxy)benzenesulfonamide] | 1000 |
